Assay results as given in ChEMBL document CHEMBL5131569, “SAGE-718: A First-in-Class N-Methyl-d-Aspartate Receptor Positive Allosteric Modulator for the Potential Treatment of Cognitive Impairment” (J Med Chem, 2022).

What was measured:
[1] = Metabolic stability in mouse liver microsomes assessed as intrinsic clearance at 10 uM preincubated for 5 mins followed by NADPH addition and measured upto 65 mins by LC-MS/MS analysis; format: ADME, Microsome; settings: time < 70 min, read-out: CLH
[2] = Metabolic stability in human liver microsomes assessed as intrinsic clearance at 10 uM preincubated for 5 mins followed by NADPH addition and measured upto 65 mins by LC-MS/MS analysis; format: ADME, Microsome; settings: time < 70 min, read-out: CLH
Mus musculus [3] = assay: Reversal of DOI-induced hyperlocomotion in CD-1 mouse assessed as reduction in distance travel at 10 mg/kg, ip administered 90 mins prior to DOI induction and measured upto 30 mins post DOI treatment (reference value: 7.8 +/- 0.8 meter); format: functional; settings: time <= 120 min, 2 h
Mus musculus [4] = assay: Reversal of DOI-induced hyperlocomotion in CD-1 mouse assessed as reduction in rearing at 3 mg/kg, ip administered 90 mins prior to DOI induction and measured upto 30 mins post DOI treatment (reference value: 59.8 +/- 8.6 Counts); format: functional; settings: time <= 120 min, 2 h
[5] = molecular target: Sodium channel protein type 5 subunit alpha (Homo sapiens, UniProt Q14524); assay: Inhibition of NaV1.5 (unknown origin)
[6] = Drug concentration in CD-1 mouse plasma at 10 mg/kg, ip administered for 90 mins; format: ADME, organism-based
Cytochrome P450 1A2 = molecular target: T1, Cytochrome P450 1A2 (Homo sapiens, UniProt P05177); assay: Inhibition of CYP1A2 (unknown origin); format: ADME
T1 sequence (P05177 whole entry): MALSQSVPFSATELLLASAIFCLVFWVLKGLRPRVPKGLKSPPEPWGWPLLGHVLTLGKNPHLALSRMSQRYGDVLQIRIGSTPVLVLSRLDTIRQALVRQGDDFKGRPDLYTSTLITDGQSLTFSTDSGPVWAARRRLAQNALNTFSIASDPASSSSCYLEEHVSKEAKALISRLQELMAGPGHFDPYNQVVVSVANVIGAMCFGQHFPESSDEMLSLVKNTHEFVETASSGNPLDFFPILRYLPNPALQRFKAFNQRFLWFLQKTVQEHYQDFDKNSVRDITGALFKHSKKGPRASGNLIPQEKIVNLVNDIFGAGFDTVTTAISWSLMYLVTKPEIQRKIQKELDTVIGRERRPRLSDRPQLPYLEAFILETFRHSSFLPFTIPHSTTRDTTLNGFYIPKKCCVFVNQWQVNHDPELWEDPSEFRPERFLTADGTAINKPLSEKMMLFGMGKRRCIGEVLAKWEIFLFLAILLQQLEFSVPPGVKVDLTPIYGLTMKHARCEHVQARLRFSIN

[7] = Drug concentration in CD-1 mouse plasma at 3 mg/kg, ip administered for 90 mins; format: ADME, organism-based
[8] = molecular target: Ionotropic glutamate receptor NMDA 1/2D (Homo sapiens, UniProt O15399+Q05586); assay: Positive allosteric modulation of recombinant human GluN1/GluN2D receptor stably expressed in HEK293 cells assessed as increase in glycine/L-glutamate-induced channel current at -70 mV holding potential by whole cell patch clamp method
Cytochrome P450 2C9 = Cytochrome P450 2C9 (Homo sapiens, UniProt P11712); assay: Inhibition of CYP2C9 (unknown origin); format: ADME
Cytochrome P450 2C9, sequence (P11712 whole entry): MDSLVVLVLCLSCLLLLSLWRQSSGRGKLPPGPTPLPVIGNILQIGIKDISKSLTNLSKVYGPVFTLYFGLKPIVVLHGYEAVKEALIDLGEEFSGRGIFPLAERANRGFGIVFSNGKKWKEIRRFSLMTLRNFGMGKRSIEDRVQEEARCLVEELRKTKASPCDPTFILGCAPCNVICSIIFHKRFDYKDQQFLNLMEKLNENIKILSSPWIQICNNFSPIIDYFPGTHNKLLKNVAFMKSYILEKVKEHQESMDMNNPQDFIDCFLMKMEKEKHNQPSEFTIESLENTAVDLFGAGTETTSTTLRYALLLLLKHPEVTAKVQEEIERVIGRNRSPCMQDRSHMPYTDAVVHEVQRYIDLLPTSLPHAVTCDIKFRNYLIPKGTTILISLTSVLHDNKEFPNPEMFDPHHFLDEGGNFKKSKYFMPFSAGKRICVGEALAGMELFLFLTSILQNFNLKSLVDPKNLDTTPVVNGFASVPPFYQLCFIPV

[9] = Metabolic stability in monkey hepatocytes assessed as clearance at 10 uM measured upto 120 mins by LC-MS/MS analysis; format: ADME, cell-based, Macaca mulatta, Hepatocyte; settings: rhesus monkey, 2 h
[10] = molecular target: Ionotropic glutamate receptor NMDA 1/2C (Homo sapiens, UniProt Q05586+Q14957); assay: Positive allosteric modulation of recombinant human GluN1/GluN2C receptor stably expressed in HEK293 cells assessed as increase in glycine/L-glutamate-induced channel current at -70 mV holding potential by whole cell patch clamp method
Ionotropic glutamate receptor NMDA 1/2C, sequence (Q14957 whole entry, other chains not shown): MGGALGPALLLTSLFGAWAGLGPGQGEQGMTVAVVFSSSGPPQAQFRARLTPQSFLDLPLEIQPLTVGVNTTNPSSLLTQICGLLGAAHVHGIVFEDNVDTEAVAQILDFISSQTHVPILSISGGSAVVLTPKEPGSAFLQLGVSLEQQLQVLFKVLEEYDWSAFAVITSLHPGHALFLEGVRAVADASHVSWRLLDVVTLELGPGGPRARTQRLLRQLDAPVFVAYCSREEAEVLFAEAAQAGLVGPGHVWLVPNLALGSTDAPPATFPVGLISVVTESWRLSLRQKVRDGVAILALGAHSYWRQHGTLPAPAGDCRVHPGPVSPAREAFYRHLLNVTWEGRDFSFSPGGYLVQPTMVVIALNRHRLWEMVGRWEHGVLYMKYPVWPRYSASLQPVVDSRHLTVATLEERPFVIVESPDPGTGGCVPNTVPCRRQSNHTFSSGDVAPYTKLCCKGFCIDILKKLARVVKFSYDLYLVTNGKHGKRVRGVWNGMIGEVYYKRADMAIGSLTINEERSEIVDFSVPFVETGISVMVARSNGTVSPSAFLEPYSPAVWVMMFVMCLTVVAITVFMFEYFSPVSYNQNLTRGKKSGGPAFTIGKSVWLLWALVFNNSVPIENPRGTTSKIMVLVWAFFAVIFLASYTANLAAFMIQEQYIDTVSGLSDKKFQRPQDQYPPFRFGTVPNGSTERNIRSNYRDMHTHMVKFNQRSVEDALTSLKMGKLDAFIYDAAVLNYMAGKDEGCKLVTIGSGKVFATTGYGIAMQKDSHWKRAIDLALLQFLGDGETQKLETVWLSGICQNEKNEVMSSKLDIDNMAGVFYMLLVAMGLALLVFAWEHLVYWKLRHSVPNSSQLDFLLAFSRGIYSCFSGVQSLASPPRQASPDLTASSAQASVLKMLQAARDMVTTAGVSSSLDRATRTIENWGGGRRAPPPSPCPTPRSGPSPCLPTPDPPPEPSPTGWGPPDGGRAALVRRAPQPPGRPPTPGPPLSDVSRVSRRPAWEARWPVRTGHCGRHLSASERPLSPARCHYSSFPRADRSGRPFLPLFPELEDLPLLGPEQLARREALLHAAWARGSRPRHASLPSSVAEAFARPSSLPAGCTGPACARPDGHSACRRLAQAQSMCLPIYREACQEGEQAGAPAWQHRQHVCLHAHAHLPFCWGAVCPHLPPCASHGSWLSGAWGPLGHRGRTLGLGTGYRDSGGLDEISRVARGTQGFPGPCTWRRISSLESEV

[11] = Plasma protein binding in rat after 15 mins by equilibrium dialysis method; format: ADME, cell-free; settings: read-out: PPB (converted)
[12] = Drug concentration in CD-1 mouse brain at 3 mg/kg, ip administered for 90 mins; format: ADME, organism-based; settings: read-out: Ct
[13] = molecular target: Voltage-dependent L-type calcium channel subunit alpha-1C (Homo sapiens, UniProt Q13936); assay: Inhibition of CaV1.2 (unknown origin) by patch clamp method
Voltage-dependent L-type calcium channel subunit alpha-1C, sequence (Q13936 whole entry): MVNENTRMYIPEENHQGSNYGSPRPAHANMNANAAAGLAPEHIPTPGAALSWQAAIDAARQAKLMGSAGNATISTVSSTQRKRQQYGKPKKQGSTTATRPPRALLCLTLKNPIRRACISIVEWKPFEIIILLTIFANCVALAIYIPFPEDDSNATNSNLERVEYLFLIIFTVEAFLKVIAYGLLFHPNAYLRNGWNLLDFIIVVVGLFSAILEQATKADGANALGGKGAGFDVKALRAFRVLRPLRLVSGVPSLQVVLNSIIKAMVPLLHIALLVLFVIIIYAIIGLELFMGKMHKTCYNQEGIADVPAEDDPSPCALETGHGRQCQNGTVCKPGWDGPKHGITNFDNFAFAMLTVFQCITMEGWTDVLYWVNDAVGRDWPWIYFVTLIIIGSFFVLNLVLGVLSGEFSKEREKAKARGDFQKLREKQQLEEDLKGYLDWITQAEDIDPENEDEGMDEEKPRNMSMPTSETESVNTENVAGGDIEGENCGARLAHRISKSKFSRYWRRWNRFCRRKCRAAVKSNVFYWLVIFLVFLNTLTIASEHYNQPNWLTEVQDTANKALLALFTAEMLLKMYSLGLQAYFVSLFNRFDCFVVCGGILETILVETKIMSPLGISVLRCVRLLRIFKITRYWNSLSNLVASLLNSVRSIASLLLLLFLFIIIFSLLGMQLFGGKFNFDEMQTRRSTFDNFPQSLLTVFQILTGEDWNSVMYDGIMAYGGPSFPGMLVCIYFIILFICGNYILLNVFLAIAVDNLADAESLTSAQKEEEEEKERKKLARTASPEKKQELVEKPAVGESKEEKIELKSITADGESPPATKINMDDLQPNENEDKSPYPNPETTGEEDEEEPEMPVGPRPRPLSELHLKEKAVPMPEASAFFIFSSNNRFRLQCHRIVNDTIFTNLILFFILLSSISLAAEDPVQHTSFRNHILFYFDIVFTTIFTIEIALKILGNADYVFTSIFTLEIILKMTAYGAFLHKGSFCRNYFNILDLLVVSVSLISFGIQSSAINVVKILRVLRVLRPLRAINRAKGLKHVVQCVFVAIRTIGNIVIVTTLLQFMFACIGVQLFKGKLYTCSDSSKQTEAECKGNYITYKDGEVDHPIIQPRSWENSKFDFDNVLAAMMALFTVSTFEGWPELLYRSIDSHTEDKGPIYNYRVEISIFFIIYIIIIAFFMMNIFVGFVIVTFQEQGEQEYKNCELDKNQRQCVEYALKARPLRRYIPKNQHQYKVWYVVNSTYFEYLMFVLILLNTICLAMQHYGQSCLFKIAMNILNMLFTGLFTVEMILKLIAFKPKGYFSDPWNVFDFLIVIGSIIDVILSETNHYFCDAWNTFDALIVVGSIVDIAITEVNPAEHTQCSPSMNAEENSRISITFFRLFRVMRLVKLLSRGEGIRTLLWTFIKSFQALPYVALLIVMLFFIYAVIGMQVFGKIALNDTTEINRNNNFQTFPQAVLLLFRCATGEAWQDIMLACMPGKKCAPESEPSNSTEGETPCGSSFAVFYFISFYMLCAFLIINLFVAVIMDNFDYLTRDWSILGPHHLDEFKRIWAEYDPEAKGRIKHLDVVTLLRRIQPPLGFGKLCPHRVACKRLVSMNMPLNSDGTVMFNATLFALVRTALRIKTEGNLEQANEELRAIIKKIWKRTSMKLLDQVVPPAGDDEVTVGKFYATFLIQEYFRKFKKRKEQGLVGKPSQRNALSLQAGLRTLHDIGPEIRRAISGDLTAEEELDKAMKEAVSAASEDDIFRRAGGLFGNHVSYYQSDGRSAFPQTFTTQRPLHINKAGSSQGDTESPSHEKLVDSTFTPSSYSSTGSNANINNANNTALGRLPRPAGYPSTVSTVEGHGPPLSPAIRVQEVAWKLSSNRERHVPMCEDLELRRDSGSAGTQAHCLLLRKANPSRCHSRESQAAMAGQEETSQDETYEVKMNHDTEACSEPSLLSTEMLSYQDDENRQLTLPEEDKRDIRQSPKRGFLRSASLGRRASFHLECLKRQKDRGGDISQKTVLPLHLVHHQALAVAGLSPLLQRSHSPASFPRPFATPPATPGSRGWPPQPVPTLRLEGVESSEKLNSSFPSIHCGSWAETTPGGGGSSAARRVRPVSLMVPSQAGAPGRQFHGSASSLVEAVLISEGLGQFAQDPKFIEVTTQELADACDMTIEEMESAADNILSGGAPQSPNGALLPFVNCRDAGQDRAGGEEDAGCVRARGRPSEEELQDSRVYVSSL

in vivo [14] = settings: Sprague-Dawley, rat, brain and plasma
Description: Ratio of AUC(0 to 72 hrs) in Sprague-Dawley rat brain to plasma by LC-MS/MS analysis

[15] = Drug concentration in CD-1 mouse plasma at 5 mg/kg, ip administered for 90 mins; format: ADME, organism-based
[16] = Clearance in Sprague-Dawley rat by LC-MS/MS analysis; format: ADME; settings: in vivo
[17] = Drug concentration in CD-1 mouse plasma at 7.5 mg/kg, ip administered for 90 mins; format: ADME, organism-based
[18] = Inhibition of Kv4.3/KChIP2.2 (unknown origin) by patch clamp method; set-up: species or system Homo sapiens
[19] = Metabolic stability in human hepatocytes assessed as clearance at 10 uM measured upto 120 mins by LC-MS/MS analysis; format: ADME, cell-based, Hepatocyte; settings: 2 h
Cytochrome P450 2C19 = Cytochrome P450 2C19 (Homo sapiens, UniProt P33261); assay: Inhibition of CYP2C19 (unknown origin); format: ADME
Cytochrome P450 2C19, sequence (P33261 whole entry): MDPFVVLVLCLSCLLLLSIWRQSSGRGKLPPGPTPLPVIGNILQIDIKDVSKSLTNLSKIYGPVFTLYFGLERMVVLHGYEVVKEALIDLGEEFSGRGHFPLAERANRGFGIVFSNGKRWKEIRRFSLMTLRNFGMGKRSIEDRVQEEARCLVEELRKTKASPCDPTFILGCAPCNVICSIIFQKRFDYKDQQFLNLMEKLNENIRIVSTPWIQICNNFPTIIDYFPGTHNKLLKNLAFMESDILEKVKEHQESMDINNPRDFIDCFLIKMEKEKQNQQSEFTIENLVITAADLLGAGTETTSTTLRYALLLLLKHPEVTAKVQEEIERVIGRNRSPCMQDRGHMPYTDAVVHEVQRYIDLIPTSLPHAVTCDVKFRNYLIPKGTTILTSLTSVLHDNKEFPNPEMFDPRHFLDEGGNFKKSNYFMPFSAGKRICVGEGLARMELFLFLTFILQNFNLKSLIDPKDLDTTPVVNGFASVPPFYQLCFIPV

[20] = Oral bioavailability in Beagle dog by LC-MS/MS analysis; format: ADME, organism-based, Canis lupus familiaris; settings: in vivo
in vivo [21] = settings: CD-1, mouse, brain and plasma
Description: Ratio of AUC(0 to 72 hrs) in CD-1 mouse brain to plasma by LC-MS/MS analysis

[22] = Metabolic stability in dog hepatocytes assessed as clearance at 10 uM measured upto 120 mins by LC-MS/MS analysis; format: ADME, cell-based, Canis lupus familiaris, Hepatocyte; settings: 2 h
[23] = Drug concentration in CD-1 mouse brain at 10 mg/kg, ip administered for 90 mins; format: ADME, organism-based; settings: read-out: Ct
Cytochrome P450 2C8 = molecular target: T2, Cytochrome P450 2C8 (Homo sapiens, UniProt P10632); assay: Inhibition of CYP2C8 (unknown origin); format: ADME
T2 sequence (P10632 whole entry): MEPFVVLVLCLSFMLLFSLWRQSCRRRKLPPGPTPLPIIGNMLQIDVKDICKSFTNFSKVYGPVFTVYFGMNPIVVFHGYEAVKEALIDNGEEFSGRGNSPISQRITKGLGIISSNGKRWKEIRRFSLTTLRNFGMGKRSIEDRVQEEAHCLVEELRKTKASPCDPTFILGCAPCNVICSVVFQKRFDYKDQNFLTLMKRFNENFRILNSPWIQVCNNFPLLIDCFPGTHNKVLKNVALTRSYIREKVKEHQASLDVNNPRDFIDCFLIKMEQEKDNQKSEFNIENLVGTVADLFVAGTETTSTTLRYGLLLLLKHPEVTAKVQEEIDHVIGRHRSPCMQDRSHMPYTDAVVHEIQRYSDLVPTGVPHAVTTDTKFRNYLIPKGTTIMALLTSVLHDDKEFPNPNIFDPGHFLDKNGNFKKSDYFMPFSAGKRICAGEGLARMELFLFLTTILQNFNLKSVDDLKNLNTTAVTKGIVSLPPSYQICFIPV

[24] = Drug concentration in CD-1 mouse brain at 5 mg/kg, ip administered for 90 mins; format: ADME, organism-based; settings: read-out: Ct
Mus musculus [25] = assay: Reversal of DOI-induced hyperlocomotion in CD-1 mouse assessed as reduction in rearing at 5 mg/kg, ip administered 90 mins prior to DOI induction and measured upto 30 mins post DOI treatment (reference value: 59.8 +/- 8.6 Counts); format: functional; settings: time <= 120 min, 2 h
[26] = Plasma protein binding in mouse after 15 mins by equilibrium dialysis method; format: ADME, cell-free; settings: read-out: PPB (converted)

C[C@H](CC[C@](C)(O)C(F)(F)F)[C@H]1CC[C@H]2[C@@H]3CC=C4C[C@@](C)(O)CC[C@]4(C)[C@H]3CC[C@]12C [DALZANEMDOR]
microsomal CLint at 10 µM [1]: < 1 µL/min/mg | microsomal CLint at 10 µM [2]: 10 µL/min/mg | Activity (Mus musculus [3]): 1.1 m | Activity (Mus musculus [4]): 52.9 Counts | IC50 [5]: > 30 µM | concentration at 1.5 h [6]: 3210 ng/mL | IC50 (Cytochrome P450 1A2): > 100 µM | concentration at 1.5 h [7]: 577 ng/mL | EC50 [8]: 0.43 µM | IC50 (Cytochrome P450 2C9): > 100 µM | CLH [9]: 18.3 mL/min/kg | EC50 [10]: 0.15 µM | fraction unbound at 0.25 h [11]: 0.022 | concentration at 1.5 h [12]: 490 ng/g | IC50 [13]: > 30 µM | Kp (in vivo [14]): 5.3 | concentration at 1.5 h [15]: 1550 ng/mL | clearance [16]: 10 mL/min/kg | concentration at 1.5 h [17]: 1590 ng/mL | IC50 [18]: > 30 µM | CLH [19]: 6.7 mL/min/kg | IC50 (Cytochrome P450 2C19): > 100 µM | bioavailability [20]: 30% | Kp (in vivo [21]): 1.8 | CLH [22]: 15 mL/min/kg | concentration at 1.5 h [23]: 1610 ng/g | IC50 (Cytochrome P450 2C8): > 10 µM | concentration at 1.5 h [24]: 894 ng/g | Activity (Mus musculus [25]): 27.1 Counts | fraction unbound at 0.25 h [26]: 0.014
